Data taken from patent US8071625B2, “Certain chemical entities, compositions, and methods” (Cytokinetics, Inc., priority 2006, dated 2011).

Molecular target: T1, crosslinked smooth muscle actomyosin (chicken gizzard smooth muscle myosin subfragment-1 crosslinked to cardiac or skeletal actin) (Gallus gallus, UniProt P10587)
T1 construct: chicken gizzard smooth muscle myosin subfragment-1; from tissue; host or cells: chicken gizzard
Experiment: Lead optimization pyruvate kinase/horseradish peroxidase/pyruvate oxidase-coupled ATPase assay (compound dose response)
Format: biochemical
Details: read-out: IC50 Arithmetic Mean
Outline: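 The ATPase used chicken gizzard smooth muscle myosin S1 chemically crosslinked to cardiac or skeletal actin, titrated to a set hydrolysis rate. It was coupled via pyruvate kinase/pyruvate oxidase/HRP in 12 mM K-PIPES pH 7.00 (22 °C) with 0.15 mM ATP, 2 mM MgCl2, 100 mM KCl and 0.1 mM Amplex Red. Fluorescence was read at ex 480/em 615 nm, and IC50 came from a 4-parameter fit.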

SMILES | IC50 [nM]
CCc1ccc(NC(=O)OCC2(C(=O)NCc3ccccc3Cl)CCN(C(=O)CNC(=O)OC(C)(C)C)CC2)cc1 [(tert-butoxy)-N-[2-(4-{N-[(2-chlorophenyl)methyl]carbamoyl}-4-{[N-(4-ethylphenyl)carbamoyloxy]methyl}piperidyl)-2-oxoethyl]carboxamide] | 919
CCc1ccc(NC(=O)OCC2(C(=O)NCc3ccccc3)CCN(C(=O)CNC(=O)OC(C)(C)C)CC2)cc1 [(tert-butoxy)-N-[2-(4-{[N-(4-ethylphenyl)carbamoyloxy]methyl}-4-[N-benzylcarbamoyl]piperidyl)-2-oxoethyl]carboxamide] | 11100
CCc1ccc(NC(=O)OCC2(C(=O)NCc3ccccc3F)CCN(C(=O)CNC(=O)OC(C)(C)C)CC2)cc1 [(tert-butoxy)-N-[2-(4-{[N-(4-ethylphenyl)carbamoyloxy]methyl}-4-{N-[(2-fluorophenyl)methyl]carbamoyl}piperidyl)-2-oxoethyl]carboxamide] | 3770
CCc1ccc(NC(=O)OCC2(C(=O)NCc3ccccc3C)CCN(C(=O)CNC(=O)OC(C)(C)C)CC2)cc1 [(tert-butoxy)-N-[2-(4-{[N-(4-ethylphenyl)carbamoyloxy]methyl}-4-{N-[(2-methylphenyl)methyl]carbamoyl}piperidyl)-2-oxoethyl]carboxamide] | 975
CCc1ccc(NC(=O)OCCN(CCN(C)C(=O)OC(C)(C)C)C(=O)NCc2ccccc2Cl)cc1 [(tert-butoxy)-N-[2-({[(2-chlorophenyl)methyl]amino}-N-{2-[N-(4-ethylphenyl)carbamoyloxy]ethyl}carbonylamino)ethyl]-N-methylcarboxamide] | 18200
CCc1ccc(NC(=O)OCC2(C(=O)NCc3ccccc3Cl)CCN(C(=O)CCCNC(=O)OC(C)(C)C)CC2)cc1 [(tert-butoxy)-N-[4-(4-{N-[(2-chlorophenyl)methyl]carbamoyl}-4-{[N-(4-ethylphenyl)carbamoyloxy]methyl}piperidyl)-4-oxobutyl]carboxamide] | 481
CCc1ccc(NC(=O)OCCN(CCCCCN)C(=O)NCc2ccccc2Cl)cc1 [N-(5-aminopentyl){[(2-chlorophenyl)methyl]amino}-N-{2-[N-(4-ethylphenyl)carbamoyloxy]ethyl}carboxamide] | 487
CCc1ccc(NC(=O)NCCN(C)C(=O)NCc2ccccc2Cl)cc1 [N-[2-({[(2-chlorophenyl)methyl]amino}-N-methylcarbonylamino)ethyl][(4-ethylphenyl)amino]carboxamide] | 6750
CCc1ccc(NC(=O)OCC2(C(=O)NCc3ccccc3Cl)CCN(C(=O)[C@@H](CO)NC(=O)OC(C)(C)C)CC2)cc1 [N-[(1R)-2-(4-{N-[(2-chlorophenyl)methyl]carbamoyl}-4-{[N-(4-ethylphenyl)carbamoyloxy]methyl}piperidyl)-1-(hydroxymethyl)-2-oxoethyl](tert-butoxy)carboxamide] | 3500
CCc1ccc(NC(=O)OCC2(C(=O)NCc3ccccc3Cl)CCN(C(=O)[C@@H](C)NC(=O)OC(C)(C)C)CC2)cc1 [N-[(1R)-2-(4-{N-[(2-chlorophenyl)methyl]carbamoyl}-4-{[N-(4-ethylphenyl)carbamoyloxy]methyl}piperidyl)-1-methyl-2-oxoethyl](tert-butoxy)carboxamide] | 12000
CCc1ccc(NC(=O)OCC2(C(=O)NCc3ccccc3Cl)CCCN(C(=O)[C@H](CO)NC(=O)OC(C)(C)C)C2)cc1 (stereo partly drawn) [N-[(1S)-2-(3-{N-[(2-chlorophenyl)methyl]carbamoyl}-3-{[N-(4-ethylphenyl)carbamoyloxy]methyl}piperidyl)-1-(hydroxymethyl)-2-oxoethyl](tert-butoxy)carboxamide] | 9090
CCc1ccc(NC(=O)OCC2(C(=O)NCc3ccccc3Cl)CCN(C(=O)[C@H](CO)NC(=O)OC(C)(C)C)CC2)cc1 [N-[(1S)-2-(4-{N-[(2-chlorophenyl)methyl]carbamoyl}-4-{[N-(4-ethylphenyl)carbamoyloxy]methyl}piperidyl)-1-(hydroxymethyl)-2-oxoethyl](tert-butoxy)carboxamide] | 416
CCc1ccc(NC(=O)OCC2(C(=O)NCc3ccccc3Cl)CCN(C(=O)[C@H](C)NC(=O)OC(C)(C)C)CC2)cc1 [N-[(1S)-2-(4-{N-[(2-chlorophenyl)methyl]carbamoyl}-4-{[N-(4-ethylphenyl)carbamoyloxy]methyl}piperidyl)-1-methyl-2-oxoethyl](tert-butoxy)carboxamide] | 1510
N#Cc1ccccc1NC(=O)OCC1(C(=O)NCc2ccccc2Cl)CCOCC1 [N-[(2-chlorophenyl)methyl](4-{[N-(2-cyanophenyl)carbamoyloxy]methyl}(2H-3,4,5,6-tetrahydropyran-4-yl))carboxamide] | 17000
Cc1ccc(NC(=O)OCC2(C(=O)NCc3ccccc3Cl)CCOCC2)cc1F [N-[(2-chlorophenyl)methyl](4-{[N-(3-fluoro-4-methylphenyl)carbamoyloxy]methyl}(2H-3,4,5,6-tetrahydropyran-4-yl))carboxamide] | 2210

Further lines, results first:

IC50 [nM] | SMILES
7220 | CCc1ccc(NC(=O)OCC2(C(=O)NCc3ccccn3)CCN(C(=O)CN)CC2)cc1 [({1-(2-aminoacetyl)-4-[N-(2-pyridylmethyl)carbamoyl](4-piperidyl)}methoxy)-N-(4-ethylphenyl)carboxamide]
18500 | CCc1ccc(NC(=O)OCC2(C(=O)NCc3ncc[nH]3)CCN(C(=O)CN)CC2)cc1 [({1-(2-aminoacetyl)-4-[N-(imidazol-2-ylmethyl)carbamoyl](4-piperidyl)}methoxy)-N-(4-ethylphenyl)carboxamide]
439 | CCc1ccc(NC(=O)OCC2(C(=O)NCc3cccc4ccccc34)CCN(C(=O)CN)CC2)cc1 [({1-(2-aminoacetyl)-4-[N-(naphthylmethyl)carbamoyl](4-piperidyl)}methoxy)-N-(4-ethylphenyl)carboxamide]
159 | CCc1ccc(NC(=O)OCC2(C(=O)NCc3ccccc3Cl)CCN(C(=O)NCCN)CC2)cc1 [N-(2-aminoethyl)(4-{N-[(2-chlorophenyl)methyl]carbamoyl}-4-{[N-(4-ethylphenyl)carbamoyloxy]methyl}piperidyl)carboxamide]
2830 | CCc1ccc(NC(=O)OCCN(CCN)C(=O)NCc2ccccc2Cl)cc1 [N-(2-aminoethyl){[(2-chlorophenyl)methyl]amino}-N-{2-[N-(4-ethylphenyl)carbamoyloxy]ethyl}carboxamide]
2540 | CCc1ccc(NC(=O)OCCN(CCCN)C(=O)NCc2ccccc2Cl)cc1 [N-(3-aminopropyl){[(2-chlorophenyl)methyl]amino}-N-{2-[N-(4-ethylphenyl)carbamoyloxy]ethyl}carboxamide]
234 | CCc1ccc(NC(=O)OC[C@@H]2C[C@@H](NC(=O)CN)CN2C(=O)NCc2ccccc2Cl)cc1 [N-((5S,3R)-1-{N-[(2-chlorophenyl)methyl]carbamoyl}-5-{[N-(4-ethylphenyl)carbamoyloxy]methyl}pyrrolidin-3-yl)-2-aminoacetamide]
1860 | CCc1ccc(NC(=O)OC[C@@H]2C[C@@H](NC(C)=O)CN2C(=O)NCc2ccccc2Cl)cc1 [N-((5S,3R)-1-{N-[(2-chlorophenyl)methyl]carbamoyl}-5-{[N-(4-ethylphenyl)carbamoyloxy]methyl}pyrrolidin-3-yl)acetamide]
14900 | CCc1ccc(CC(=O)NCC2(C(=O)NCc3ccccc3Cl)CCN(C(=O)CN)CC2)cc1 [N-[(1-(2-aminoacetyl)-4-{N-[(2-chlorophenyl)methyl]carbamoyl}(4-piperidyl))methyl]-2-(4-ethylphenyl)acetamide]
16400 | CCc1ccc(NC(=O)N(CCN)CC2(C(=O)NCc3ccccc3Cl)CCN(C(=O)CN)CC2)cc1 [N-[(1-(2-aminoacetyl)-4-{N-[(2-chlorophenyl)methyl]carbamoyl}(4-piperidyl))methyl]-N-(2-aminoethyl)[(4-ethylphenyl)amino]carboxamide]
12400 | CCc1ccc(NC(=O)N(CCCOC)CC2(C(=O)NCc3ccccc3Cl)CCN(C(=O)CN)CC2)cc1 [N-[(1-(2-aminoacetyl)-4-{N-[(2-chlorophenyl)methyl]carbamoyl}(4-piperidyl))methyl][(4-ethylphenyl)amino]-N-(3-methoxypropyl)carboxamide]
2770 | CCc1ccc(NC(=O)OCC2(C(=O)NCc3ccccc3Cl)CCN(C(=O)C3CCCCC3)CC2)cc1 [N-[(2-chlorophenyl)methyl](1-(cyclohexylcarbonyl)-4-{[N-(4-ethylphenyl)carbamoyloxy]methyl}(4-piperidyl))carboxamide]
641 | CCc1ccc(NC(=O)OCC2(C(=O)NCc3ccccc3Cl)CCN(C(=O)C3CC3)CC2)cc1 [N-[(2-chlorophenyl)methyl](1-(cyclopropylcarbonyl)-4-{[N-(4-ethylphenyl)carbamoyloxy]methyl}(4-piperidyl))carboxamide]
6280 | CCc1ccc(NC(=O)OCC2(C(=O)NCc3ccccc3Cl)CCN(CC)CC2)cc1 [N-[(2-chlorophenyl)methyl](1-ethyl-4-{[N-(4-ethylphenyl)carbamoyloxy]methyl}(4-piperidyl))carboxamide]
5510 | CCc1ccc(NC(=O)OCC2(C(=O)NCc3ccccc3Cl)CC(O)C(O)C2)cc1 (centres unmarked) [N-[(2-chlorophenyl)methyl](1-{[N-(4-ethylphenyl)carbamoyloxy]methyl}-3,4-dihydroxycyclopentyl)carboxamide]
1360 | CCc1ccc(NC(=O)OCC2(C(=O)NCc3ccccc3Cl)CC=CC2)cc1 [N-[(2-chlorophenyl)methyl](1-{[N-(4-ethylphenyl)carbamoyloxy]methyl}cyclopent-3-enyl)carboxamide]
399 | CCc1ccc(NC(=O)OCC2(C(=O)NCc3ccccc3Cl)CCCN(C(=O)CO)C2)cc1 (centres unmarked) [N-[(2-chlorophenyl)methyl](3-{[N-(4-ethylphenyl)carbamoyloxy]methyl}-1-(2-hydroxyacetyl)(3-piperidyl))carboxamide]
